Assays:
EGFR L858R T790M L718V = EGFR L858R T790M L718V (Homo sapiens, UniProt P00533, L718V/L858R/T790M); assay: Ba/F3 cell viability, Cell Titer Glo; conditions: read-out: IC50 Values; Ba/F3 cells expressing EGFR L858R T790M L718V, 72 hours
Method: (§1) Cell viability was determined by the Cell Titer Glo assay.
(§2) Briefly, stable Ba/F3 cell lines were generated by retroviral transduction of Ba/F3 cell line for 12 hours. […] Three days after transduction, 2 μg/ml puromycin (Invitrogen) was added to the RPMI media. Cell lines were then grown in the absence of IL-3 for two weeks and cell viability was assessed every three days using the Cell Titer Glo assay (Progema).
(§3) Briefly, 2000-3000 cells per well were plated in 384-well plates (Greiner Bio-One) in technical triplicate. Cells were treated with seven different concentrations of tyrosine kinase inhibitors or vehicle alone at a final volume of 40 μL per well. After 3 days, 11 μL of Cell Titer Glo was added to each well. Plates were shaken for 15 minutes, and bioluminescence was determined using a FLUOstar OPTIMA multi-mode micro-plate reader (BMG LABTECH). Bioluminescence values were normalized to DMSO treated cells, and normalized values were plotted in GraphPad Prism using non-linear regression fit to normalized data with a variable slope.

EGFR Ex19del/T790M/G724S = EGFR Ex19del/T790M/G724S (Homo sapiens, UniProt P00533, DEL746-750/G724S/T790M); assay: Ba/F3 cell viability, Cell Titer Glo; conditions: read-out: IC50 Values; Ba/F3 cells expressing EGFR Ex19del/T790M/G724S, 72 hours
Method: as §1, §3

EGFR L718Q T790M = EGFR L718Q T790M (Homo sapiens, UniProt P00533, L718Q/T790M); assay: Ba/F3 cell viability, Cell Titer Glo; conditions: read-out: IC50 Values; Ba/F3 cells expressing EGFR L718Q T790M, 72 hours
Method: as §1, §2, §3

WT EGFR = WT EGFR (Homo sapiens, UniProt P00533); conditions: read-out: IC50 values; Ba/F3 cells expressing WT EGFR (+10 ng/ml EGF), 72 hours
Method: as §1, §2, §3

EGFR L858R T790M L792H = EGFR L858R T790M L792H (Homo sapiens, UniProt P00533, L792H/L858R/T790M); assay: Ba/F3 cell viability, Cell Titer Glo; conditions: read-out: IC50 Values; Ba/F3 cells expressing EGFR L858R T790M L792H, 72 hours
Method: as §1, §2, §3

EGFR L858R/T790M = EGFR L858R/T790M (Homo sapiens, UniProt P00533, L858R/T790M); assay: Ba/F3 cell viability, Cell Titer Glo; conditions: read-out: IC50 Values; Ba/F3 cells expressing EGFR L858R/T790M, 72 hours
Method: as §1, §2, §3

EGFR Ex19delT790M = EGFR Ex19delT790M (Homo sapiens, UniProt P00533, DEL746-750/T790M); assay: Ba/F3 cell viability, Cell Titer Glo; conditions: read-out: IC50 Values; Ba/F3 cells expressing EGFR Ex19delT790M, 72 hours
Method: as §1, §2, §3

EGFR T790M = EGFR T790M (Homo sapiens, UniProt P00533, T790M); assay: Ba/F3 cell viability, Cell Titer Glo; conditions: read-out: IC50 Values; Ba/F3 cells expressing EGFR T790M, 72 hours
EGFR T790M, sequence (P00533 25-1210 T790M): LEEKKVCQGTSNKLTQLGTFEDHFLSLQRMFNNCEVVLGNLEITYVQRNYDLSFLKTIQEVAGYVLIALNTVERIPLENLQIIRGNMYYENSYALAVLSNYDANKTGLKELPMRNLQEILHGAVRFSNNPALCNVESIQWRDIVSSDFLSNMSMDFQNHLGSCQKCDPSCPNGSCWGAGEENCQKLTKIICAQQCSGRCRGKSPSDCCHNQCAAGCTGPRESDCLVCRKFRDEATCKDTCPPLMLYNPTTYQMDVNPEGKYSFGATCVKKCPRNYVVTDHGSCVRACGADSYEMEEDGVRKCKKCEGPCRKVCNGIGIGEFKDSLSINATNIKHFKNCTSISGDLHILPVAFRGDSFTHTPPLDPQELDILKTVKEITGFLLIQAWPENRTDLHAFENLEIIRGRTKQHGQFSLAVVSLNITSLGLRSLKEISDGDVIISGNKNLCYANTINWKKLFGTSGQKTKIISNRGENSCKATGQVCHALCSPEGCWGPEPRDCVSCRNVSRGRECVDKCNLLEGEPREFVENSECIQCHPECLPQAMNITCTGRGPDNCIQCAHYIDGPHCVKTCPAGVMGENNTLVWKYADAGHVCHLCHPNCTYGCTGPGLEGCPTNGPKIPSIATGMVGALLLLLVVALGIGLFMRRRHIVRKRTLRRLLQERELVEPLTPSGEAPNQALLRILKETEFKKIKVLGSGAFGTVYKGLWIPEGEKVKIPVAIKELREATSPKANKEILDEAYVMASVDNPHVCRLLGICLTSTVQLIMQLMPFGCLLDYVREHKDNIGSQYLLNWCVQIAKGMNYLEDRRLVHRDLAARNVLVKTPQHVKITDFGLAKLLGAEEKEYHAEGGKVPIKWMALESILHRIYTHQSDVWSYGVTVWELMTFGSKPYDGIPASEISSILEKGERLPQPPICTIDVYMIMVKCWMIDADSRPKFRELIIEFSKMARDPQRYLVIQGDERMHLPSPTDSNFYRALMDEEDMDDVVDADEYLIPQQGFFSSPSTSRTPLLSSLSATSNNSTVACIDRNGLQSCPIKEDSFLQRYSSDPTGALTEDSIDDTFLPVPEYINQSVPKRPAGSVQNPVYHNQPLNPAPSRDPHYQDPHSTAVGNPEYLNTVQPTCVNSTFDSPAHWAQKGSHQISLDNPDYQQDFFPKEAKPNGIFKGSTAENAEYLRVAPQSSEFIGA
Method: as §1, §2, §3

EGFR G724S T790M = EGFR G724S T790M (Homo sapiens, UniProt P00533, G724S/T790M); assay: Ba/F3 cell viability, Cell Titer Glo; conditions: read-out: IC50 Values; Ba/F3 cells expressing EGFR G724S T790M, 72 hours
Method: as §1, §2, §3

EGFR L858R T790M/C797S = EGFR L858R T790M/C797S (Homo sapiens, UniProt P00533, C797S/L858R/T790M); assay: Ba/F3 cell viability, Cell Titer Glo; conditions: read-out: IC50 Values; Ba/F3 cells expressing EGFR L858R T790M/C797S, 72 hours
Method: as §1, §2, §3

EGFR Ex19del/T790M/L792H = EGFR Ex19del/T790M/L792H (Homo sapiens, UniProt P00533, DEL746-750/L792H/T790M); assay: Ba/F3 cell viability, Cell Titer Glo; conditions: read-out: IC50 Values; Ba/F3 cells expressing EGFR Ex19del/T790M/L792H, 72 hours
Method: as §1, §2, §3

EGFR S768I/T790M = EGFR S768I/T790M (Homo sapiens, UniProt P00533, S768I/T790M); assay: Ba/F3 cell viability, Cell Titer Glo; conditions: read-out: IC50 Values; Ba/F3 cells expressing EGFR S768I/T790M, 72 hours
Method: as §1, §3

EGFR L858R T790M V843I = EGFR L858R T790M V843I (Homo sapiens, UniProt P00533, L858R/T790M/V843I); assay: Ba/F3 cell viability, Cell Titer Glo; conditions: read-out: IC50 Values; Ba/F3 cells expressing EGFR L858R T790M V843I, 72 hours
EGFR L858R T790M V843I, sequence (P00533 25-1210 T790M/V843I/L858R): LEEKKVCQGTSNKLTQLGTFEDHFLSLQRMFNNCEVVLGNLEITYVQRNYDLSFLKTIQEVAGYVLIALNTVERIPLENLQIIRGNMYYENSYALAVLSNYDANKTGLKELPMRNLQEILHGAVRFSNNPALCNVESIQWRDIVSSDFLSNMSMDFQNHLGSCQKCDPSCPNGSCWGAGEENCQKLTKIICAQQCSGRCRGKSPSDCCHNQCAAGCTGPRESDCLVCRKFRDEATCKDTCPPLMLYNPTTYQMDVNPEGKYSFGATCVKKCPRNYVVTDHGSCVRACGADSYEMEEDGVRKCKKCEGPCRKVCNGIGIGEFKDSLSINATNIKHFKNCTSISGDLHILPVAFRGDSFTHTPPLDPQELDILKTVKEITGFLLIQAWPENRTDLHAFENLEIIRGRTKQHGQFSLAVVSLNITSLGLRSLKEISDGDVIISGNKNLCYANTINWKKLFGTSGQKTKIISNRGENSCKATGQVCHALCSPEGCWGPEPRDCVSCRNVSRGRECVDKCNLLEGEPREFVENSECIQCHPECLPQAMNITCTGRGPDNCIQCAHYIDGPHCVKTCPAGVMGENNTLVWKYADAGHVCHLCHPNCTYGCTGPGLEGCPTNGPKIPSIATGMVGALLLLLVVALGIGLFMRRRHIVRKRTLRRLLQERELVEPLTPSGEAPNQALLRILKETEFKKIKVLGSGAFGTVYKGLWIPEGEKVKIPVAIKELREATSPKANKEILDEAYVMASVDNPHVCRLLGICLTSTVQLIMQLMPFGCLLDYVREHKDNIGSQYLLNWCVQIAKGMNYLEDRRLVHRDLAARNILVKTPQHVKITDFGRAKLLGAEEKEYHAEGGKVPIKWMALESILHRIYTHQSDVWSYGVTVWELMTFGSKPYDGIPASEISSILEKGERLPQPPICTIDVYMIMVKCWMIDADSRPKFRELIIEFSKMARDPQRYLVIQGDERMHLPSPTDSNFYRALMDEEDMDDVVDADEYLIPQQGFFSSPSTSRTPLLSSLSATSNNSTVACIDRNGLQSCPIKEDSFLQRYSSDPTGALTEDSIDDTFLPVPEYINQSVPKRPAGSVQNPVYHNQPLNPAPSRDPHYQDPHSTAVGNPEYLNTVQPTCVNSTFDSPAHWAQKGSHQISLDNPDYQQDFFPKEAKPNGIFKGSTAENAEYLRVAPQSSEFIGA
Method: as §1, §2, §3

EGFR Ex19delT790M L718V = EGFR Ex19delT790M L718V (Homo sapiens, UniProt P00533, DEL746-750/L718V/T790M); assay: Ba/F3 cell viability, Cell Titer Glo; conditions: read-out: IC50 Values; Ba/F3 cells expressing EGFR Ex19delT790M L718V, 72 hours
Method: as §1, §2, §3

EGFR G719A T790M = EGFR G719A T790M (Homo sapiens, UniProt P00533, G719A/T790M); assay: Ba/F3 cell viability, Cell Titer Glo; conditions: read-out: IC50 Values; Ba/F3 cells expressing EGFR G719A T790M, 72 hours
Method: as §1, §3

EGFR Ex19del T790M C797S = EGFR Ex19del T790M C797S (Homo sapiens, UniProt P00533, C797S/DEL746-750/T790M); assay: Ba/F3 cell viability, Cell Titer Glo; conditions: read-out: IC50 Values; Ba/F3 cells expressing EGFR Ex19del T790M C797S, 72 hours
EGFR Ex19del T790M C797S, sequence (P00533 with tags, fused parts or gaps DEL746-750/T790M/C797S): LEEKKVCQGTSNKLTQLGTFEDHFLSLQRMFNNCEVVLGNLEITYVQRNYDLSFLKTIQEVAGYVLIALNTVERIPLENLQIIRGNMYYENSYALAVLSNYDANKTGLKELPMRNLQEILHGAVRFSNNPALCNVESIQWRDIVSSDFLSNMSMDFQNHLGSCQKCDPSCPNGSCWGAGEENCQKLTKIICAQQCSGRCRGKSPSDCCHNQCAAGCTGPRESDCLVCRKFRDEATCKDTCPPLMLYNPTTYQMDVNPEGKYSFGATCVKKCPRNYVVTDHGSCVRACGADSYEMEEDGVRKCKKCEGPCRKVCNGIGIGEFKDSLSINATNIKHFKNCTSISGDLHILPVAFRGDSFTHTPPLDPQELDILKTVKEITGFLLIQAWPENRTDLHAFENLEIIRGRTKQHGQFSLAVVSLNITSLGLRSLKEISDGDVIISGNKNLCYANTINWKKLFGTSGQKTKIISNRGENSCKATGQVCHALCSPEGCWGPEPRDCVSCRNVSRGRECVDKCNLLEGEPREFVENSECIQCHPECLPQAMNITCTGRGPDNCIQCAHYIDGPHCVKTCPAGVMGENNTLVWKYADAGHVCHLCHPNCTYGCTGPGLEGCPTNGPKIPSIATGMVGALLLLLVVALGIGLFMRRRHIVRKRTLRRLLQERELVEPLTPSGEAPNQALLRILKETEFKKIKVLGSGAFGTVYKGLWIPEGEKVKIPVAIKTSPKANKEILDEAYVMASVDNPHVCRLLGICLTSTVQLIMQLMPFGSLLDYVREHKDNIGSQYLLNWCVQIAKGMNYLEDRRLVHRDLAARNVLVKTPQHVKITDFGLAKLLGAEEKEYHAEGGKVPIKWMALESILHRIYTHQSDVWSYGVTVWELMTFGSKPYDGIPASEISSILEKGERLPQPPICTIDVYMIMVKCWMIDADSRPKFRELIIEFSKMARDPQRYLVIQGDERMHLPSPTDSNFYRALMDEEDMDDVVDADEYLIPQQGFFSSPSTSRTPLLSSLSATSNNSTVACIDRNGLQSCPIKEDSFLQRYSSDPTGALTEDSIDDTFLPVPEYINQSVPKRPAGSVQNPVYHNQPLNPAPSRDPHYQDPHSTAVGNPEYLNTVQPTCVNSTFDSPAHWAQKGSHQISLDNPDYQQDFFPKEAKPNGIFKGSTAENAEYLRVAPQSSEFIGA
Method: as §1, §2, §3

EGFR L858R/T790M/L718Q = EGFR L858R/T790M/L718Q (Homo sapiens, UniProt P00533, L718Q/L858R/T790M); assay: Ba/F3 cell viability, Cell Titer Glo; conditions: read-out: IC50 Values; Ba/F3 cells expressing EGFR L858R/T790M/L718Q, 72 hours
Method: as §1, §2, §3

EGFR Ex19del/T790M/G724S, sequence (P00533 with tags, fused parts or gaps G724S/DEL746-750/T790M): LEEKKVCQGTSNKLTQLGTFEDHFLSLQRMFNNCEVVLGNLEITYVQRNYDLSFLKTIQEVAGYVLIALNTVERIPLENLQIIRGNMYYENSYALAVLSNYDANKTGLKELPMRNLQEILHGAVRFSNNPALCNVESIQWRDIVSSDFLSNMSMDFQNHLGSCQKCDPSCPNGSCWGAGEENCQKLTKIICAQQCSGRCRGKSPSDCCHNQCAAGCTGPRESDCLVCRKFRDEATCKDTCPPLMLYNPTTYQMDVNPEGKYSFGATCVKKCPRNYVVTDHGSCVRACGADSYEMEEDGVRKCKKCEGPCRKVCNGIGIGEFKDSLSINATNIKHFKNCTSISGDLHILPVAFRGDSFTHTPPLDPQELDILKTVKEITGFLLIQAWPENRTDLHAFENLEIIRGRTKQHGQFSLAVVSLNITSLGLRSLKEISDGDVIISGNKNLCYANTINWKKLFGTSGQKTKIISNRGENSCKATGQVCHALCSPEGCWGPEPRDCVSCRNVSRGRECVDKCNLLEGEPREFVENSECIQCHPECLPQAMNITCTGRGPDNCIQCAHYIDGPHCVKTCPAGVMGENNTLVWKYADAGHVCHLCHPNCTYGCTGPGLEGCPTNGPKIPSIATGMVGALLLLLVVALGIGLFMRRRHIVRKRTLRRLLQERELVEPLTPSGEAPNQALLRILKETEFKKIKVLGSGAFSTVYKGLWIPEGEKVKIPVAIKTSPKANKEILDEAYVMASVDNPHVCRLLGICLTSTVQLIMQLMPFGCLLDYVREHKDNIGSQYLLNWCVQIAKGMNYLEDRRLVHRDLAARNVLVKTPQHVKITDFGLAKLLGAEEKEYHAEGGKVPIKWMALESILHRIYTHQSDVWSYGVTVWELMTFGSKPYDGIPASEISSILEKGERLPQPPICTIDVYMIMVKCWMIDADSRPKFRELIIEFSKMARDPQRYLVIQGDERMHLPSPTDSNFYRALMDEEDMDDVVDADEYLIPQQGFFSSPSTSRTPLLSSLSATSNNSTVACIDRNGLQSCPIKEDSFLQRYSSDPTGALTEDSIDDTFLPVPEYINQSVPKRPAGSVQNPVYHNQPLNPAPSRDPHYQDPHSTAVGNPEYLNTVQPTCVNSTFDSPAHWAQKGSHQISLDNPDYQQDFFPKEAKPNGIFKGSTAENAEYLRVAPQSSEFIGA

COc1cc(N2CCC(N)CC2)ccc1Nc1ncc(Cl)c(-c2c[nH]c3ccccc23)n1 [AZD3463]
IC50 (EGFR L858R T790M L718V): 662 nM
IC50 (EGFR Ex19del/T790M/G724S): 1610 nM
IC50 (EGFR L718Q T790M): 1140 nM
IC50 (WT EGFR): 1630 nM
IC50 (EGFR L858R T790M L792H): 1550 nM
IC50 (EGFR L858R/T790M): 2400 nM
IC50 (EGFR Ex19delT790M): 255 nM
IC50 (EGFR T790M): 1270 nM
IC50 (EGFR G724S T790M): 695 nM
IC50 (EGFR L858R T790M/C797S): 1270 nM
IC50 (EGFR Ex19del/T790M/L792H): 1090 nM
IC50 (EGFR S768I/T790M): 1730 nM
IC50 (EGFR L858R T790M V843I): 768 nM
IC50 (EGFR Ex19delT790M L718V): 1340 nM
IC50 (EGFR G719A T790M): 1340 nM
IC50 (EGFR Ex19del T790M C797S): 1440 nM
IC50 (EGFR L858R/T790M/L718Q): 1120 nM
